Data set [1] has as its target T1, human 5-HT1ARs (Homo sapiens, UniProt P08908).
T1 sequence (P08908 1-422): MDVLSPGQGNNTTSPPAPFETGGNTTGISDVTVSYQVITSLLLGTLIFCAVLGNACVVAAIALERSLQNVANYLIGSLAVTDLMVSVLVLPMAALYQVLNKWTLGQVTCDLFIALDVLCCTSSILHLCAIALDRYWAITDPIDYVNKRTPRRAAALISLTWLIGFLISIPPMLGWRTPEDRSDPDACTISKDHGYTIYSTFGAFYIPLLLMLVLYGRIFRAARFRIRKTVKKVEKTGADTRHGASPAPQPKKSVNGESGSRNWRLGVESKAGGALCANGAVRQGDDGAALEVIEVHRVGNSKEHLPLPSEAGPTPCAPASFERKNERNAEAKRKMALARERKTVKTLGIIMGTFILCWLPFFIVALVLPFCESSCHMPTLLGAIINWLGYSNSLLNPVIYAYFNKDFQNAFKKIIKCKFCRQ
Briefly: In vitro 5-HT1A receptor cAMP signaling. The class given is cell-based. The following applies: for 5-HT1A E/Imax: Emax is the percent maximum serotonin, agonist, response, value (SEM), N.A. = no activation or inactivation up to 30 μM.

The target in data set [2] is T1, human 5-HT1ARs. In words: Radioligand competition binding at human 5-HT1ARs. To be noted: present study versus 540 nM of ref 13.
Another data set has as its target human 5-HT1A receptor. The following applies: read-out: Ki human 5-HT1A receptor orthosteric binding site; cited from earlier work.
The target of data set [3] is T2, human 5-HT2B receptors (Homo sapiens, UniProt P41595). In words: 5-HT2B receptor phosphoinositide hydrolysis. The class given is cell-based. To be noted: for 5-HT2B E/Imax (Imax): Imax is the percent maximum SB 206553, inverse agonist, response, value (SEM), N.A. = no activation or inactivation up to 30 μM; for In vitro functional activity at human 5-HT2BRs: phosphoinositide hydrolysis assay.

For the next data set, the system named is hMOR. To be noted: BRET G protein activation assay, cited from earlier work.
The target of a further data set is T3, 5-HT3Rs (Homo sapiens, UniProt P46098).
T3 sequence (P46098 24-478): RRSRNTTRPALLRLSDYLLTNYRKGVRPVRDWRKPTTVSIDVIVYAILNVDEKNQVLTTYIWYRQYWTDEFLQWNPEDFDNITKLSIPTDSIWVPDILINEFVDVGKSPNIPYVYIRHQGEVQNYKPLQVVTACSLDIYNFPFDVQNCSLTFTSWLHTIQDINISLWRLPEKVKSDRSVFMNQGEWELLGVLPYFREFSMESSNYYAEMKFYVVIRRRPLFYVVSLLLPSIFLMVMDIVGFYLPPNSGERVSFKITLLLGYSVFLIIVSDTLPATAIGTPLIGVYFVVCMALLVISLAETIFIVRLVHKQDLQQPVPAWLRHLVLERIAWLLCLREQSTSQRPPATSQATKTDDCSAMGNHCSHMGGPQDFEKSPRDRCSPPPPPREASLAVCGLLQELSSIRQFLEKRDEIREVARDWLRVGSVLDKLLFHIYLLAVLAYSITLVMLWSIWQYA
Briefly: Radioligand competition binding at 5-HT3Rs.

Data set [4] concerns the target T2, human 5-HT2B receptors. The class given is binding. To be noted: 100 nM alkaloid; [125I](±)DOI; CHO-K1 cells.
The next data set deals with 5-HT1A receptors. To be noted: cited from earlier work.
In the next data set the target is adrenergic α1D receptors. To be noted: read-out: Ki adrenergic α1D receptors; cited from earlier work.
For data set [5] the following is noted: i.v., male rats.

T2 sequence (P41595 whole entry): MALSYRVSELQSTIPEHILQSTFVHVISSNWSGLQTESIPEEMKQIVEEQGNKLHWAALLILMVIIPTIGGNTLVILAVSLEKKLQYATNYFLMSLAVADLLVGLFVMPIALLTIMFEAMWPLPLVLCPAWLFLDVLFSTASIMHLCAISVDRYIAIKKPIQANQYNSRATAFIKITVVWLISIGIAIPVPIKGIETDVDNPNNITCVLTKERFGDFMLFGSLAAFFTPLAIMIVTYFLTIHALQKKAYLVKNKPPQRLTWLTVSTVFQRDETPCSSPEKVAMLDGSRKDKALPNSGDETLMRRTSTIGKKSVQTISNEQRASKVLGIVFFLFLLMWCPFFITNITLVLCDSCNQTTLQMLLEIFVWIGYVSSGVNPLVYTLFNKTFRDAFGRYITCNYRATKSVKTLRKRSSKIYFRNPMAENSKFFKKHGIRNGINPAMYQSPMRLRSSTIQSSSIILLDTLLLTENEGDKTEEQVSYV

With `NCCc1c[nH]c2ccc(O)cc12` [serotonin, reference compound], the “5-HT1A E/Imax” value on human 5-HT1ARs [1] is listed as 100%.

Turning to `CC[C@H]1CN2CCc3c([nH]c4cccc(OC)c34)[C@@H]2C[C@@H]1/C(=C\OC)C(=O)OC` [speciogynine, Methyl(E)-2-((2S,3R,12bS)-3-ethyl-8-methoxy-1,2,3,4,6,7,12,12b-octahydroindolo[2,3-a]quinolizin-2-yl)-3-methoxyacrylate], the “Affinity for 5-HT1ARs relative to previously reported value” at human 5-HT1ARs [2] was above 10 fold. At human 5-HT1A receptor, the Ki was 540 nM. On human 5-HT2B receptors [3], a half-maximal effect (EC50) was put at 2020 nM, the “5-HT2B E/Imax (Imax)” value is given as 24.8 (6.9) % and the “In vitro functional activity at human 5-HT2BRs” value was “no agonist activity”. Also, the “Functional activity at hMOR” value in the data set on hMOR is on record as “low-potency, competitive antagonists”.

As to `O=C1c2ccccc2S(=O)(=O)N1CCCCN1CCN(c2ncccn2)CC1` [ipsapirone, reference compound], the “5-HT1A E/Imax” value on human 5-HT1ARs [1] is reported as 82 (0.1) %.

Regarding `CC[C@H]1CN2CCc3c([nH]c4cccc(O)c34)[C@@H]2C[C@@H]1/C(=C\OC)C(=O)OC` [9-O-desmethylspeciogynine (gambirine), Methyl(E)-2-((2S,3R,12bS)-3-ethyl-8-hydroxy-1,2,3,4,6,7,12,12b-octahydroindolo[2,3-a]quinolizin-2-yl)-3-methoxyacrylate], on human 5-HT2B receptors [3], the midpoint of the response, the EC50, lay at 1470 nM and the “5-HT2B E/Imax (Imax)” value is given as 45 (14.3) %. On human 5-HT1ARs [1], the midpoint of the response, the EC50, lay at 838 nM and the “5-HT1A E/Imax” value was 99 (0.08) %.

In the case of “Methyl(4S,4aR,13bS,14aS)-4-methyl-4a,5,7,8,13,13b,14,14a-octahydro-4H-indolo[2,3-a]pyrano[3,4-g]quinolizine-1-carboxylate [ajmalicine]”, the Ki on human 5-HT1A receptor was 420 nM. Moreover, the “Percent displacement of radioligand, 5-HT3” value (from here on “Percent displacement … 5-HT3”) at 5-HT3Rs (100 nM alkaloid) was −2.5%; on 5-HT3Rs (10,000 nM alkaloid) it was 1.8%. For the same molecule, the “Percent displacement of radioligand, 5-HT2B” value (from here on “Percent displacement … 5-HT2B”) on human 5-HT2B receptors [4] is 6.2%.

`C=C[C@H]1CN2CCc3c([nH]c4cccc(O)c34)[C@@H]2C[C@@H]1/C(=C\OC)C(=O)OC` [9-O-desmethylpaynantheine (gambireine), Methyl(E)-2-((2S,3R,12bS)-8-hydroxy-3-vinyl-1,2,3,4,6,7,12,12b-octahydroindolo[2,3-a]quinolizin-2-yl)-3-methoxyacrylate]: at human 5-HT2B receptors [3], the response was half-maximal at 2340 nM (EC50) and the “5-HT2B E/Imax (Imax)” value is reported as 38 (10.3) %. Also, at human 5-HT1ARs [1], the EC50 stood at 865 nM and the “5-HT1A E/Imax” value is on record as 100 (0.08) %.

As to `CC[C@@H]1CN2CC[C@@]3(O)C(=Nc4cccc(OC)c43)[C@@H]2C[C@@H]1/C(=C\OC)C(=O)OC` [7-hydroxymitragynine], in the data set on hMOR, the “hMOR Emax” value is […]. Also, the EC50 with hMOR (read-out: hMOR EC50) is […].

Take `C/C=C1/CN2CCc3c([nH]c4ccccc34)[C@@H]2C[C@@H]1/C(=C/OC)C(=O)OC` [Geissoschizine methyl ether]: in the data set with 5-HT1A receptors, the “Activity at 5-HT1A receptors” value is on record as “potent antagonist”.

With `Cn1ccc2cc3c(cc21)CCN3C(=O)Nc1cccnc1` [SB 206553, reference compound], on human 5-HT2B receptors [3], the EC50 amounted to 15.3 nM and the “5-HT2B E/Imax (Imax)” value is on record as 100%.

For `C=C[C@H]1CN2CCc3c([nH]c4cccc(OC)c34)[C@@H]2C[C@@H]1/C(=C\OC)C(=O)OC` [paynantheine, Methyl(E)-3-methoxy-2-((2S,3R,12bS)-8-methoxy-3-vinyl-1,2,3,4,6,7,12,12b-octahydroindolo[2,3-a]quinolizin-2-yl)acrylate], on human 5-HT2B receptors [3], the “In vitro functional activity at human 5-HT2BRs” value is “no agonist activity”. Moreover, the results for the “Percent displacement … 5-HT3” value at 5-HT3Rs (100 nM alkaloid) and at 5-HT3Rs (10,000 nM alkaloid) were −9.8% and −0.8%, respectively. Besides, the “Functional activity at hMOR” value in the data set on hMOR is given as “low-potency, competitive antagonists”.

Turning to `CC[C@@H]1CN2CCc3c([nH]c4cccc(OC)c34)[C@H]2C[C@@H]1/C(=C\OC)C(=O)OC` [speciociliatine], the “Functional activity at hMOR” value in the data set on hMOR is on record as “low-potency, competitive antagonists”.

`CC[C@@H]1CN2CCc3c([nH]c4ccccc34)[C@@H]2C[C@@H]1/C(=C\OC)C(=O)OC` [corynantheidine]: the “Percent displacement … 5-HT3” value at 5-HT3Rs (100 nM alkaloid) is 6.2%; at 5-HT3Rs (10,000 nM alkaloid) it was 6.8%. In addition, the Ki on adrenergic α1D receptors is 41 nM. Besides, at human 5-HT2B receptors [4], the “Percent displacement … 5-HT2B” value worked out at 14.8%.

Regarding `CC[C@@H]1CN2CCc3c([nH]c4cccc(O)c34)[C@@H]2C[C@@H]1/C(=C\OC)C(=O)OC` [9-hydroxycorynantheidine], the results for the “Percent displacement … 5-HT3” value at 5-HT3Rs (100 nM alkaloid) and on 5-HT3Rs (10,000 nM alkaloid) were −1.3% and 7.3%, respectively. The “Percent displacement … 5-HT2B” value at human 5-HT2B receptors [4] is 5.2%.

In the case of `CC[C@@H]1CN2CCc3c([nH]c4cccc(OC)c34)[C@@H]2C[C@@H]1/C(=C\OC)C(=O)OC` [mitragynine], in data set [5], the “Dose-normalized exposure (AUCinf/dose) relative to paynantheine” value worked out at 3.6 fold and the “Dose-normalized exposure (AUCinf/dose) relative to speciogynine” value is given as 1.7 fold.

Source of the values: article PMC9235362 (Journal of medicinal chemistry, 2021).
